Experimental data published in patent publication US20130097726A1, “METHODS AND COMPOSITIONS FOR WEED CONTROL” (priority 2011, published 2013).

Test system: Glyphosate-sensitive Palmer amaranth (A. palmeri R-22) plants
Assay: Topical ssDNA HPPD oligonucleotide mixture with or without mesotrione or atrazine: plant height / growth reduction
Assay type: in vivo, Amaranthus palmeri
Conditions: twelve days after treatment
Method: Glyphosate-sensitive Palmer amaranth (A. palmeri R-22) plants were grown in the greenhouse (30/20 C day/night T; 14 hour photoperiod) in 4 inch square pots containing Sun Gro® Redi-Earth and 3.5 kg/cubic meter Osmocote® 14-14-14 fertilizer. Palmer amaranth plants at 5 to 10 cm in height were pre-treated with a mixture of eight 8 short (21-22mer) single-strand antisense oligo DNA polynucleotides (ssDNAas) targeting HPPD shown in Table 2 as HPPD_OLIGO1-8 (SEQ ID NO: 1083-1090, respectively) at two concentrations, 16 nmol and 80 nmol, formulated in 10 millimolar sodium phosphate buffer (pH 6.8) containing 2% ammonium sulfate and 0.5% Silwet L-77. Plants were treated manually by pipetting 10 μL of polynucleotide solution on four fully expanded mature leaves, for a total of 40 microliters of solution per plant. Twenty-four and forty-eight hours later, the plants were treated with mesotrione (Callisto®, 4 lb ai per gallon; HPPD inhibitor) at 13 g ai/ha, or atrazine (Aatrex® Nine-0®, 90% w/w ai; Photosystem II inhibitor) at 170 g ai/ha using a track-sprayer equipped with a 9501E nozzle and calibrated to deliver 93 liters of solution per hectare. […] Plant height was determined just before ssDNA treatment and at intervals upto twelve days after herbicide treatments to determine effect of the oligonucleotide and herbicide treatments.

| Structure (SMILES) | control (growth reduction) (atrazine alone 170 g ai/ha) [%] | control (growth reduction) (mesotrione alone 13 g ai/ha) [%] |
| --- | --- | --- |
| CCNc1nc(Cl)nc(NC(C)C)n1 [atrazine] | 29 |  |
| CS(=O)(=O)c1ccc(C(=O)C2C(=O)CCCC2=O)c([N+](=O)[O-])c1 [mesotrione] |  | 48 |
